Series [1] concerns Zymoseptoria tritici. Kind of series: Test A: wheat leaf blotch, spray on wheat seedlings, disease control rating. Format: in vivo. Particulars: 100 = 100% disease control, 0 = no disease control relative to the controls; for pest or weed control at 10 ppm: Rate 10 ppm; for pest or weed control at 250 ppm: Rate 250 ppm. The text has this: (§1) General protocol for preparing test suspensions for Tests A-F: the test compounds were first dissolved in acetone in an amount equal to 3% of the final volume and then suspended at the desired concentration (in ppm) in acetone and purified water (50/50 mix by volume) containing 250 ppm of the surfactant PEG400 (polyhydric alcohol esters). The resulting test suspensions were then used in Tests A-F.
The test solution was sprayed to the point of run-off on wheat seedlings. The following day the seedlings were inoculated with a spore suspension of Zymoseptoria tritici (the causal agent of wheat leaf blotch) and incubated in a saturated atmosphere at 24° C. for 48 h, and then moved to a growth chamber at 20° C. for 17 days, after which time disease ratings were made.
(§2) A rating of 100 indicates 100% disease control and a rating of 0 indicates no disease control (relative to the controls). A dash (-) indicates the compound was not tested.

Series [2] concerns Puccinia recondita f. sp. tritici. Kind of series: Test B: wheat leaf rust, spray on wheat seedlings, disease control rating. The format is in vivo. Particulars: Puccinia recondita, 192 h, 100 = 100% disease control, 0 = no disease control relative to the controls; for pest or weed control at 10 ppm: Rate 10 ppm; for pest or weed control at 250 ppm: Rate 250 ppm. Summed up:
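Compound in acetone (3% of final volume) was suspended at the stated ppm in acetone/water 50/50 with 250 ppm PEG400 and sprayed to run-off on wheat seedlings. Puccinia recondita spores were inoculated next day, then 24 h saturated atmosphere at 20 °C and 7 days at 20 °C. Rated 0–100% disease control versus controls.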

The subject of series [3] is Blumeria graminis f. sp. tritici. Kind of series: Test C: wheat powdery mildew, spray on wheat seedlings, disease control rating. The format is in vivo. Particulars: 192 h, 100 = 100% disease control, 0 = no disease control relative to the controls; for pest or weed control at 10 ppm: Rate 10 ppm; for pest or weed control at 250 ppm: Rate 250 ppm.
Excerpt: as §1
The test suspension was sprayed to the point of run-off on wheat seedlings. The following day the seedlings were inoculated with a spore dust of Blumeria graminis f. sp. tritici, (also known as Erysiphe graminis f. sp. tritici, the causal agent of wheat powdery mildew) and incubated in a growth chamber at 20° C. for 8 days, after which time visual disease ratings were made.
as §2

In series [4] the test system is Phakopsora pachyrhizi. Kind of series: Test D: Asian soybean rust, spray on soybean seedlings, disease control rating. The format is in vivo. Particulars: Phakopsora pachyrhizi, 216 h, 100 = 100% disease control, 0 = no disease control relative to the controls; for pest or weed control at 10 ppm: Rate 10 ppm; for pest or weed control at 250 ppm: Rate 250 ppm. The method, boiled down: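 Soybean seedlings sprayed to run-off with compound suspension (ppm, in 50/50 acetone/water with 250 ppm PEG400), inoculated next day with P. pachyrhizi spores, held 24 h saturated at 22°C then 8 days at 22°C. Visual rating 0-100% disease control relative to controls.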

The subject of series [5] is Botrytis cinerea. Kind of series: Test E: tomato Botrytis, spray on tomato seedlings, disease control rating. The format is in vivo. Particulars: 100 = 100% disease control, 0 = no disease control relative to the controls; for pest or weed control at 10 ppm: Rate 10 ppm; for pest or weed control at 250 ppm: Rate 250 ppm.
Excerpt: as §1
The test suspension was sprayed to the point of run-off on tomato seedlings. The following day the seedlings were inoculated with a spore suspension of Botrytis cinerea (the causal agent of tomato Botrytis) and incubated in a saturated atmosphere at 20° C. for 48 h, and then moved to a growth chamber at 24° C. for 3 days, after which time visual disease ratings were made.
as §2

For `COC(=O)NCc1cc(-c2ccn(-c3c(F)cc([N+](=O)[O-])cc3F)n2)ccc1C` [Compound 1, methyl N-[[5-[1-(2,6-difluoro-4-nitrophenyl)-1H-pyrazol-3-yl]-2-methylphenyl]methyl]carbamate], the pest or weed control – broadly, the degree to which the test organism was suppressed or injured, in per cent – at 10 ppm in series [1] is 0%; in series [2] it was 68%; in series [3], 0%; in series [4], 44%; in series [5], 0%.
Take `COC(=O)NCc1cc(-c2ccn(-c3c(F)cc(C#N)cc3F)n2)ccc1C` [Compound 2]: the melting point (in general, the temperature, or range, at which the solid turns liquid) fell in the range of 171 to 174 °C. Moreover, the pest or weed control at 10 ppm in series [1] was 13%. Also, the pest or weed control at 10 ppm in series [2] was found to be 68%. For the same compound, in series [3], the pest or weed control at 10 ppm was found to be 0%. The pest or weed control at 10 ppm in series [4] was 100%. Besides, in series [5], the pest or weed control at 10 ppm was determined as 0%.
With `COC(=O)NCc1cc(-c2ccn(-c3c(F)cc(OC)cc3F)n2)ccc1C` [Compound 3, methyl N-[[5-[1-(2,6-difluoro-4-methoxyphenyl)-1H-pyrazol-3-yl]-2-methylphenyl]methyl]carbamate], the pest or weed control at 10 ppm in series [1] turned out to be 50%; in series [2] it was 100%; in series [3], 79%; in series [4], 100%; in series [5], 45%.
Compound `COC(=O)NCc1cc(-c2ccn(-c3c(F)cc(Cl)cc3F)n2)ccc1C` [Compound 6, methyl N-[[5-[1-(4-chloro-2,6-difluorophenyl)-1H-pyrazol-3-yl]-2-methylphenyl]methyl]carbamate] gave a melting point of 148 to 149 °C. In addition, the pest or weed control at 10 ppm in series [1] is 7%. The pest or weed control at 10 ppm in series [2] turned out to be 98%. In series [3], this compound gave a pest or weed control at 10 ppm of 0%. Further, the pest or weed control at 10 ppm in series [4] amounted to 100%. The same compound came in with a pest or weed control at 10 ppm in series [5] of 0%.
As to `COC(=O)NCc1cc(-c2ccn(-c3c(F)cc(OC(F)F)cc3F)n2)ccc1C` [Compound 15, methyl N-[[5-[1-[4-(difluoromethoxy)-2,6-difluorophenyl]-1H-pyrazol-3-yl]-2-methylphenyl]methyl]carbamate], the melting point was 102 to 103 °C. Also, the pest or weed control at 10 ppm in series [1] is 0%. In series [2], this compound gave a pest or weed control at 10 ppm of 99%. In series [3], the pest or weed control at 10 ppm stood at 69%. The compound also returned a pest or weed control at 10 ppm in series [4] of 100%. For the same compound, the pest or weed control at 10 ppm in series [5] came out at 0%.
With `COC(=O)NCc1cc(-c2ccn(-c3c(F)cc(C(C)C)cc3F)n2)ccc1C` [Compound 63, methyl N-[[5-[1-[2,6-difluoro-4-(1-methylethyl)phenyl]-1H-pyrazol-3-yl]-2-methylphenyl]methyl]carbamate], the pest or weed control at 10 ppm in series [1] is 26%; in series [2] it was 100%; in series [3], 98%; in series [4] it was 100%; in series [5], 0%.
Take `COC(=O)NCc1cc(-c2ccn(-c3c(F)cc(C(F)(F)F)cc3F)n2)ccc1C` [Compound 64, methyl N-[[5-[1-[2,6-difluoro-4-(trifluoromethyl)phenyl]-1H-pyrazol-3-yl]-2-methylphenyl]methyl]carbamate]: the melting point was in the range of 106 to 108 °C. For the same compound, the pest or weed control at 10 ppm in series [1] amounted to 0%. Further, in series [2], the pest or weed control at 10 ppm stood at 100%. This compound returned a pest or weed control at 10 ppm in series [3] of 89%. The pest or weed control at 10 ppm in series [4] came to 100%. This compound also yielded a pest or weed control at 10 ppm in series [5] of 0%.
Regarding `COC(=O)NCc1cc(-c2ncn(-c3c(F)cc([N+](=O)[O-])cc3F)n2)ccc1C` [Compound 107], the melting point was 179 to 183 °C. This compound also came in with a pest or weed control at 250 ppm in series [1] of 28%. The same compound gave a pest or weed control at 250 ppm in series [2] of 80%. Besides, in series [3], the pest or weed control at 250 ppm amounted to 43%. Besides, the pest or weed control at 250 ppm in series [4] turned out to be 0%. Besides, the pest or weed control at 250 ppm in series [5] turned out to be 0%.
On to `COC(=O)NCc1cc(-c2cnn(-c3c(F)cc([N+](=O)[O-])cc3F)n2)ccc1C` [Compound 118, methyl N-[[5-[2-(2,6-difluoro-4-nitrophenyl)-2H-1,2,3-triazol-4-yl]-2-methylphenyl]methyl]carbamate], for which the pest or weed control at 250 ppm in series [1] was 1%; in series [2], 0%; in series [3], 0%; in series [4] it was 0%; in series [5], 0%.
`COC(=O)NCc1cc(-c2cn(-c3c(Cl)cc(OC)cc3OC)nn2)ccc1C` [Compound 120] yielded a melting point of 145 to 148 °C. Besides, the pest or weed control at 10 ppm in series [2] amounted to 0%. In addition, in series [4], the pest or weed control at 10 ppm is 0%.
Compound `COC(=O)NCc1cc(-c2cn(-c3c(F)cc(Cl)cc3F)nn2)ccc1C` [Compound 121, methyl N-[[5-[1-(4-chloro-2,6-difluorophenyl)-1H-1,2,3-triazol-4-yl]-2-methylphenyl]methyl]carbamate] displayed a melting point of 159 to 163 °C. The same compound returned a pest or weed control at 10 ppm in series [2] of 68%. In series [4], this compound had a pest or weed control at 10 ppm of 0%.
For `COC(=O)NCc1cc(-c2cn(-c3c(F)cc(F)cc3Cl)nn2)ccc1C` [Compound 122], the melting point was 125 to 129 °C. This compound returned a pest or weed control at 250 ppm in series [1] of 71%. The pest or weed control at 250 ppm in series [2] amounted to 99%. In series [3], the pest or weed control at 250 ppm was found to be 0%. This compound also registered a pest or weed control at 250 ppm in series [4] of 100%. The same compound yielded a pest or weed control at 250 ppm in series [5] of 0%.
With `COC(=O)NCc1cc(-c2cn(-c3c(Cl)cc(OC)cc3Cl)nn2)ccc1C` [Compound 123], the melting point lay within 148 to 152 °C. Further, the pest or weed control at 10 ppm in series [2] stood at 0%. For the same compound, in series [4], the pest or weed control at 10 ppm was determined as 0%.
`COC(=O)NCc1cc(-c2cn(-c3c(C)cc(OC)cc3C)nn2)ccc1C` [Compound 124] displayed a melting point of 110 to 114 °C. The pest or weed control at 10 ppm in series [2] was 0%. The compound also had a pest or weed control at 10 ppm in series [4] of 0%.
`COC(=O)NCc1cc(-c2cn(-c3c(F)cc(I)cc3F)nn2)ccc1C` [Compound 125] had a melting point of 166 to 170 °C. The same compound came in with a pest or weed control at 10 ppm in series [2] of 68%. In series [4], this compound registered a pest or weed control at 10 ppm of 0%.
On to `COC(=O)NCc1cc(-c2cn(-c3c(F)cc(Br)cc3F)nn2)ccc1C` [Compound 126], for which the melting point fell in the range of 160 to 164 °C. The pest or weed control at 10 ppm in series [2] stood at 57%. Further, in series [4], the pest or weed control at 10 ppm stood at 0%.
The matching figures for `COC(=O)NCc1cc(-c2cn(-c3c(Br)cc(OC)cc3Br)nn2)ccc1C` [Compound 128]: 167 to 171 °C, 0% and 0%.
The matching figures for `COC(=O)NCc1cc(-c2cn(-c3c(Br)cc(OC)cc3[N+](=O)[O-])nn2)ccc1C` [Compound 129]: 158 to 162 °C, 0% and 0%.
For the compound `COC(=O)NCc1cc(-c2cn(-c3c(F)cc(OC)cc3F)nn2)ccc1C` [Compound 130], the melting point fell in the range of 146 to 150 °C. The compound further displayed a pest or weed control at 10 ppm in series [2] of 68%. The compound further had a pest or weed control at 10 ppm in series [4] of 0%.
For `COC(=O)NCc1cc(-c2cnn(-c3c(F)cc(C(F)(F)F)cc3F)n2)ccc1C` [Compound 141], the melting point lay within 138 to 142 °C. Also, in series [2], the pest or weed control at 10 ppm was determined as 99%. In series [4], this compound registered a pest or weed control at 10 ppm of 100%.

(Values after patent US11634393B2, “Substituted tolyl fungicides” (FMC CORPORATION, priority 2018, dated 2023).)
